The source of these data is US11661440B2 (priority 2015, dated 2023).

One assay has as its system NMDA receptor. The class given is cell-based, rat.
For assay [1], the target named is GluN2B recombinant subunit (Rattus norvegicus, UniProt Q00960). The note with it: cited from earlier work.
Assay [2] deals with NMDA receptor GluN2B subunit (Mus musculus, UniProt Q01097). The note with it: cited from earlier work.

“Also recorded” adds a separate entry of the source. Ends that are not written are not given here.

GluN2B recombinant subunit, sequence (Q00960 27-1482, other chains not shown): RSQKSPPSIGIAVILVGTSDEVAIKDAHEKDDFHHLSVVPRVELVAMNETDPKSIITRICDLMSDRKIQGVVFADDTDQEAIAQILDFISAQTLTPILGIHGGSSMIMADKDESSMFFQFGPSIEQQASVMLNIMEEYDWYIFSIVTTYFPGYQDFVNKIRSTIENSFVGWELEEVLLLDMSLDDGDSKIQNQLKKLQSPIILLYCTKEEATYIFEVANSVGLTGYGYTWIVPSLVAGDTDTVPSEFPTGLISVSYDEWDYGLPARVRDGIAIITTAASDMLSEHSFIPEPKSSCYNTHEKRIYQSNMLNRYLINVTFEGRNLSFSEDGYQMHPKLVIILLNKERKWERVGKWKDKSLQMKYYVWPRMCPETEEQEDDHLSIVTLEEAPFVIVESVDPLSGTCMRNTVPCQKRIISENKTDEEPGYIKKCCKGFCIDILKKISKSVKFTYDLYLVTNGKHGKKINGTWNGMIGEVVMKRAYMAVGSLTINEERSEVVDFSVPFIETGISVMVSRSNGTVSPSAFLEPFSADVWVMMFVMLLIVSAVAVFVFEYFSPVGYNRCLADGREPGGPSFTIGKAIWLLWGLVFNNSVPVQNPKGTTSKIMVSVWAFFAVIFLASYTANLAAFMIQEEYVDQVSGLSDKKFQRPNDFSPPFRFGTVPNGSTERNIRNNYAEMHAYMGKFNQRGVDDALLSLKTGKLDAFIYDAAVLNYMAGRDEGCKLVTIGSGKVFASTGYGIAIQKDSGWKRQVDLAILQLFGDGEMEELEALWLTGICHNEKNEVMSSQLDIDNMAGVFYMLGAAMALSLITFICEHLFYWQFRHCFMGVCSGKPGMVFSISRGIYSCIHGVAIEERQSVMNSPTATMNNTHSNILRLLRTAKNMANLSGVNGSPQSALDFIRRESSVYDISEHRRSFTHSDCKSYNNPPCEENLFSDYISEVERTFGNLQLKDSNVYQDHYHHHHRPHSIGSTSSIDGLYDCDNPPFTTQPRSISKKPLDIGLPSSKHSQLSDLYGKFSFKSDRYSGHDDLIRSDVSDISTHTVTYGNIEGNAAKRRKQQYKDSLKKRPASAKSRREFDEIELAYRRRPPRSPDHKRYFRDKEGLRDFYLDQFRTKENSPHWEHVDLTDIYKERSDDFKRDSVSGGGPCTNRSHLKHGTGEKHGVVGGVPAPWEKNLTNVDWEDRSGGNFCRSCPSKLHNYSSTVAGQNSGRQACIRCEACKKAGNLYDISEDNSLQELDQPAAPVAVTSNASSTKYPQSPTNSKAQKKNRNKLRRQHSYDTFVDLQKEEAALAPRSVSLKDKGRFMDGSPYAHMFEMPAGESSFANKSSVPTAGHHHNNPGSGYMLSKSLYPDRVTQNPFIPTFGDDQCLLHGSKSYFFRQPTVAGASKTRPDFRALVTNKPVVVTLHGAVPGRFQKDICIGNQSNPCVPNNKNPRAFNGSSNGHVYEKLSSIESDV
NMDA receptor GluN2B subunit, sequence (Q01097 whole entry, looked up): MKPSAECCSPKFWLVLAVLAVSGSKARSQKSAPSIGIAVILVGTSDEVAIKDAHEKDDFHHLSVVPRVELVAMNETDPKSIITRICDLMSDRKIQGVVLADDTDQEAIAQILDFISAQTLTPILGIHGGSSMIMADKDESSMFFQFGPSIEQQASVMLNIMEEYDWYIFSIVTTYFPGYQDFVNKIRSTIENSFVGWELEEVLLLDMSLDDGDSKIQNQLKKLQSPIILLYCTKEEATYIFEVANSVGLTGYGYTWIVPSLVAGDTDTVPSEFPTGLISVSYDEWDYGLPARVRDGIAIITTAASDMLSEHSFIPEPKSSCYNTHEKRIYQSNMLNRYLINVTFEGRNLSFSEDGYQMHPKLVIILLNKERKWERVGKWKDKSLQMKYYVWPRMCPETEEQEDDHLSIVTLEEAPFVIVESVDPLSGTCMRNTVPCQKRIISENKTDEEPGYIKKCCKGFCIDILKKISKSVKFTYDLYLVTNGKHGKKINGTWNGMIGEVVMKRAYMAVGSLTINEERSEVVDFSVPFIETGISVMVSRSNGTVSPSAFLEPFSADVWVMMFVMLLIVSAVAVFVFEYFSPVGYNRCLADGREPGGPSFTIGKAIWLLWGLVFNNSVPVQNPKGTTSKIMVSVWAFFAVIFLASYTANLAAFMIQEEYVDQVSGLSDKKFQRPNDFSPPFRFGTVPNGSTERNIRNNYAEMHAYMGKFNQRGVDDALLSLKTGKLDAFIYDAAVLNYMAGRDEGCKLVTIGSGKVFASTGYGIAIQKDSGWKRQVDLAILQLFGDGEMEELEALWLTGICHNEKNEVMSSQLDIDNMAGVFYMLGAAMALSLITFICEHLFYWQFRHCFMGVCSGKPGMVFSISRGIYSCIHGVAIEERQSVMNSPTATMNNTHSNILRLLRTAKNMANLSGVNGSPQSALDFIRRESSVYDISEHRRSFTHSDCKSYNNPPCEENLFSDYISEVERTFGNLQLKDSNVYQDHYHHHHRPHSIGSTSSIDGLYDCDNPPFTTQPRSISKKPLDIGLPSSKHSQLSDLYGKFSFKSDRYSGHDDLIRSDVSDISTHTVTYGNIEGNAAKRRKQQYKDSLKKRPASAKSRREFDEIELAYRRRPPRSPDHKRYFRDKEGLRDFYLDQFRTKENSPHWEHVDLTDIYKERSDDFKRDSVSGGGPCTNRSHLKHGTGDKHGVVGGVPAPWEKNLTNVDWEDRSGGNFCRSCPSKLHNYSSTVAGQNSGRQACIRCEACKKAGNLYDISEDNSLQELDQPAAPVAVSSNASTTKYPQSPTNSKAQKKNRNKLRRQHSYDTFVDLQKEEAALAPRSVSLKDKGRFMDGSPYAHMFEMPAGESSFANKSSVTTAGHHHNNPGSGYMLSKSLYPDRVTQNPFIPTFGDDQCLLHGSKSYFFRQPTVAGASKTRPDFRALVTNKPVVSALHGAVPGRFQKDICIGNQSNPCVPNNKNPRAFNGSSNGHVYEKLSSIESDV

For the compound `C[C@@H](CN1CCC(Cc2ccccc2)CC1)[C@@H](O)c1ccc(O)cc1` [Ro 25-9681], the “blocking of the response evoked by NMDA/glycine” value with NMDA receptor was “less than 50%”. In assay [1], the IC50 is 9 nM.

Regarding KLGMRSELQIDNDQDAD [SEQ ID NO: 4], the “agonist effect: input current evoked by the peptide (in words)” value in the assay with NMDA receptor was “evoked input current via the NMDA receptor; also recorded: an input current was found”.

Take GEγγLQγNQγLIRγKSN-NH2 [conantokin-G]: the results for the IC50 in assay [2] and in assay [1] were 500 nM and 100 nM, respectively.

For the compound `C[C@]12N[C@H](Cc3ccccc31)c1ccccc12` [(+)-MK-801, dizocilpine], in the assay with NMDA receptor, the “blocking of input current due to stimulation by peptide SEQ ID NO: 4” value is “more than 90%”, the “blocking of the response (in words)” value was “almost total blocking of the response” and the “reduction in the response obtained by stimulation with NMDA/glycine” value is “more than 50%”.

What is called IC50 is the concentration needed to halve the response being measured.
